# Results from ChEMBL document CHEMBL3244359, “Aromatic hydroxylation of beta-adrenergic antagonists. 4- and 5-hydroxylation of 1-(isopropylamino)-3-[2-(allyloxy)phenoxy]-2-propanol (oxprenolol)” (J Med Chem, 1978).
# Tests used:
# [1] = Retention time of the compound by gas chromatography; type: physicochemical
# [2] = Drug excretion in Sprague-Dawley rat urine treated with oxprenolol at 20 mg/kg, ip after 24 hrs by GC-CIMS analysis in presence of beta-glucuronidase and CH2N2; type: ADME, organism-based; set-up: dose 20 mg/kg, route intraperitoneal; settings: in vivo
# [3] = Drug excretion in Sprague-Dawley rat urine treated with oxprenolol at 20 mg/kg, ip after 24 hrs by GC-CIMS analysis; type: ADME, organism-based; set-up: dose 20 mg/kg, route intraperitoneal; settings: in vivo
Retention_time [1] [min],Drug excretion [2],Drug excretion [3],Structure (SMILES)
11.8,metabolite_detected,–,C=CCOc1ccc(OC)cc1OCC(O)CNC(C)C.O=C(O)C(F)(F)F (centres undefined)
–,–,metabolite_detected,C=CCOc1cc(O)ccc1OCC(O)CNC(C)C (centres undefined)
10.5,–,–,C=CCOc1cccc(OC)c1OCC(O)CNC(C)C.O=C(O)C(F)(F)F (centres undefined)
13.1,metabolite_detected,–,C=CCOc1cc(OC)ccc1OCC(O)CNC(C)C.O=C(O)C(F)(F)F (centres undefined)
9.6,–,–,C=CCOc1c(OC)cccc1OCC(O)CNC(C)C.O=C(O)C(F)(F)F (centres undefined)
5.7,–,–,C=CCOc1ccccc1OCC(O)CNC(C)C.O=C(O)C(F)(F)F (centres undefined)
–,–,metabolite_detected,C=CCOc1ccc(O)cc1OCC(O)CNC(C)C (centres undefined)
